Laboratory results from US11673927B2, “Antitumor agent targeting HGF-regulated tyrosine kinase substrate (HGS)” (TOKYO METROPOLITAN INSTITUTE OF MEDICAL SCIENCE, priority 2018, dated 2023).

Assays:
[1] = tested on: COLO 205 cells; experiment: In vivo Xenograft test; set-up: species or system BALB/c Slc-nu/nu nude mice; details: for tumor growth inhibitory effect compared with OP12-462, OP10-507 and OP10-527: COLO 205 xenograft, same method as Example 2 1.(2), FIGS. 6A to 6C; for tumor growth of COLO 205 cells (tumor volume): nude mice, 5 mg/kg body weight, tail vein, once daily Day 0 to Day 9, versus PBS
Experimental: COLO 205 cells (1E+6 cells/0.2 ml PBS) were inoculated subcutaneously into the back of BALB/c Slc-nu/nu nude mice (female) (n=5 or 6). The day after 10 days was set as Day 0, and PBS or the test oligopeptides (OP12-462, OP10-507 and OP10-527) (5 mg/kg body weight) was administered as a 0.2 ml PBS solution in the tail vein once daily for 10 days from Day 0 to Day 9. The size of the tumor formed was measured once daily from Day 0. The tumor volume was estimated by measuring the minor axis and major axis of the tumor (tumor volume=(semi-minor axis×semi-minor axis×semi-major axis×π)/6).
With the same method as in the above “[Example 2] 1. (2)”, the tumor growth inhibitory ability was evaluated for OP10-7, OP10-10 and OP10-11, which are typical examples of conventional HGS/C constituent oligopeptides.

[2] = tested on: mouse melanoma B16 cells; experiment: Experimental lung metastasis inhibition test; type: in vivo, C57BL/6 mice; details: B16 cells incubated with 40 nmol oligopeptide 2 hours, tail vein, colonies counted after 28 days, versus vehicle
Experimental: The metastasis inhibitory effect of OP12-462 on the experimental lung metastasizing ability of mouse melanoma B16 cells was examined.
First, a PBS solution (0.2 ml PBS) of mouse melanoma B16 cells (1E+5 cells) and the test oligopeptide (OP12-462) (40 nmol) was incubated at 37° C. for 2 hours. After incubation, this solution was administered to C57BL/6 mice (female) in the tail vein. The number of B16 cell metastatic tumor colonies in the mouse lung was counted 28 days after the tail vein administration of B16 cells. The ability of the oligopeptide OP12-462 to inhibit metastasis was quantified as the relative ratio of the number of the tumor colonies treated with the oligopeptide to the number of tumor colonies of B16 cells untreated with the oligopeptide.
As was in the above “1. (3)”, an experimental lung metastasis inhibition test was conducted on the oligopeptide OP12-462 and the OP12-462 alanine substituted peptides.

[3] = tested on: B16 cells or COLO 205 cells; experiment: In vitro anchorage-independent growth inhibition test of OP12-462 alanine substituted peptides; type: cell-based; details: compared with the sample untreated with an oligopeptide (vehicle) or with OP12-462, FIG. 5
Description: (§1) In the present example, the Ultra-Low Attachment Surface Corning Costar 96 Well Cell Culture Plate 3474 (Corning) was used as an Ultra-Low Attachment Surface (ULAS) plate, and Tissue Culture Treated Corning Costar 96 Well Cell Culture Plate 3595 (Corning) was used as a normal plate.
(§2) As cells, mouse melanoma B16 cells and human colorectal cancer-derived COLO 205 cells were used, and Cell Counting Kit-8 (Dojindo Laboratories) was used to evaluate cell growth.
(§3) B16 cells or COLO 205 cells (2E+3 cells/0.2 ml Opti-MEM medium, 5% FBS/well) were seeded in each well of the ULAS plate and normal plate. The test oligopeptides (OP12-462, OP10-507 and OP10-527) (0, 0.16, 0.4, 8 nmol) were each added and cultured at 37° C.
(§4) After 7 days, 0.1 ml of Cell Counting Kit-8 solution (5-fold PBS diluted solution) was added, and the absorbance A450 nm was immediately measured and set as the TO blank value.
(§5) After incubating at 37° C. for 2 hours, the absorbance A450 nm was measured again and set as T2. The change=T2−T0 was defined as the anchorage-independent growth activity value or the anchorage-dependent growth activity value. The cell growth activity when adding a test oligopeptide was quantified as the relative ratio to the cell growth activity when no test oligopeptide was added.
As was in the above “1. […]

[4] = tested on: human colorectal cancer-derived COLO 205 cells; experiment: In vitro anchorage-independent growth inhibition test (ULAS plate), COLO 205; type: cell-based; details: ULAS plate, 0, 0.16, 0.4, 8 nmol, 7 days, FIG. 2B
Description: (§6) Cancer cells proliferate in an anchorage-independent manner, and normal cells proliferate in an anchorage-dependent manner.
as §1, §2, §3, §4, §5

[5] = tested on: human colorectal cancer-derived COLO 205 cells; experiment: In vitro anchorage-dependent growth inhibition test (normal plate), COLO 205; type: cell-based; details: normal plate, 0, 0.16, 0.4, 8 nmol, 7 days, FIG. 2B
Description: as §6, §1, §2, §3, §4, §5

[6] = tested on: mouse melanoma B16 cells; experiment: In vitro anchorage-independent growth inhibition test (ULAS plate), B16; type: cell-based; details: ULAS plate, 0, 0.16, 0.4, 8 nmol, 7 days, FIG. 2A
Description: as §6, §1, §2, §3, §4, §5

[7] = molecular target: T1, GST-labeled HGS (Human) Recombinant Protein (Homo sapiens, UniProt O14964); experiment: SPR interaction screening with immobilized GST-labeled HGS; type: binding; details: ProteOn XPR36, GST value as blank
T1 construct: purchased Abnova
Experimental: (§7) Specifically, Glutathione S-transferase (GST)-labeled HGS (Human) Recombinant Protein (Abnova), GST-labeled STAM (Human) Recombinant Protein (Abnova), or GST (Abnova) was immobilized on a ProteOn™ GLH sensor chip.
(§8) The interactions between the HGS/C constituent oligopeptides and these immobilized proteins were measured using the ProteOn™ XPR36 interaction array system (Bio-Rad). Using the GST value as a blank value, the dissociation rate constants (Kd) of the HGS/C-constituent oligopeptides with each of GST-labeled HGS and GST-labeled STAM were measured.

[8] = tested on: mouse melanoma B16 cells; experiment: In vitro anchorage-dependent growth inhibition test (normal plate), B16; type: cell-based; details: normal plate, 0, 0.16, 0.4, 8 nmol, 7 days, FIG. 2A
Description: as §6, §1, §2, §3, §4, §5

[9] = molecular target: T2, GST-labeled STAM (Human) Recombinant Protein (Homo sapiens, UniProt Q92783); experiment: SPR interaction screening with immobilized GST-labeled STAM; type: binding; details: ProteOn XPR36, GST value as blank
T2 construct: purchased Abnova
T2 sequence (Q92783 1-540): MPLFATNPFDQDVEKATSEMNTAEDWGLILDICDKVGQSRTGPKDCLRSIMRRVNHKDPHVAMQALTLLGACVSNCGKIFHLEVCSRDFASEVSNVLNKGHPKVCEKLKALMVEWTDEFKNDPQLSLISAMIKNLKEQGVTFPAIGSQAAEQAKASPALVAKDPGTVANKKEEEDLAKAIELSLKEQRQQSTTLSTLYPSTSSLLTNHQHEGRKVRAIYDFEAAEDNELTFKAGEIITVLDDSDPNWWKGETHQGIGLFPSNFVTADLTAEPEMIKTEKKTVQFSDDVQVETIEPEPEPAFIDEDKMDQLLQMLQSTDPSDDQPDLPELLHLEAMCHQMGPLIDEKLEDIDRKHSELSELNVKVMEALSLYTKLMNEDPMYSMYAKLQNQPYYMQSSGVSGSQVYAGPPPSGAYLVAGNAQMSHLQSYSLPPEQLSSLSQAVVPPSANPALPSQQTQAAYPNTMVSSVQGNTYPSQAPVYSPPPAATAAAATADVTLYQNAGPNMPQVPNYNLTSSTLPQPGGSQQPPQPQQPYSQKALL
Experimental: as §7, §8

T1 sequence (O14964 whole entry): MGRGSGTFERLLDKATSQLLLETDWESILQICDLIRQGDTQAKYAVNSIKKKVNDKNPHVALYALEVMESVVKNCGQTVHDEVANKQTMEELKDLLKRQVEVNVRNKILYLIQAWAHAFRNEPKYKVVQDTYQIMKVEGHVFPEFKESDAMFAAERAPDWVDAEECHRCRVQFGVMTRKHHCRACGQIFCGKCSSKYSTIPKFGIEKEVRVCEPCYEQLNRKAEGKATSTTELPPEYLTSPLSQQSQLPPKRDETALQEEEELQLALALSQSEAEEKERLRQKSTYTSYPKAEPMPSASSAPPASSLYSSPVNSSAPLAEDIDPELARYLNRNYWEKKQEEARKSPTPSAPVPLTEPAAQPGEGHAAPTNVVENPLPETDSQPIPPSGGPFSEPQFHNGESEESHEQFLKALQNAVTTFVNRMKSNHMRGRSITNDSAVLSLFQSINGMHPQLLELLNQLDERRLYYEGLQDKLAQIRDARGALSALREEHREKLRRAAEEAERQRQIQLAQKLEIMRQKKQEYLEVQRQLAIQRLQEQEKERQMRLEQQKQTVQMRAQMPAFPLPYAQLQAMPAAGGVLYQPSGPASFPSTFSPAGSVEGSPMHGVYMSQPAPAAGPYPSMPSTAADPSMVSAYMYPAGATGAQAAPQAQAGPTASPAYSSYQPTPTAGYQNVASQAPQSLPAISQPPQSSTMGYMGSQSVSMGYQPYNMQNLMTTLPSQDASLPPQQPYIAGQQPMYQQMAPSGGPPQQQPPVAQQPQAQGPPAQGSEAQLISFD

Row | interaction with HGS, dissociation rate constant (Kd) as index [7] | interaction with STAM, dissociation rate constant (Kd) as index [9] | Sequence | tumor growth inhibitory effect compared with OP12-462, OP10-507 and OP10-527 [1] | tumor growth of COLO 205 cells (tumor volume) [1] | experimental lung metastasizing ability of mouse melanoma B16 cells (number of lung tumor colonies) [2] | anchorage-independent growth activity [4] | anchorage-dependent growth activity [5] | anchorage-independent growth activity [6] | anchorage-dependent growth activity [8] | other results
1 | – | – | ALSALREEHR [OP10-7, conventional HGS/C constituent oligopeptide] | remarkably lower | a tumor growth inhibitory effect was observed | – | – | – | – | – | –
2 | – | – | ERALYYEGLQDK [OP12-462-A3] | – | – | remarkably inhibited | – | – | – | – | in vitro anchorage-independent growth [3]: equally to or more than OP12-462
3 | – | – | ERRAYYEGLQDK [OP12-462-A4] | – | – | remarkably inhibited | – | – | – | – | –
4 | – | – | ERRLYYEGAQDK [OP12-462-A9] | – | – | remarkably inhibited | – | – | – | – | –
5 | enhanced interaction | enhanced interaction | ERRLYYEGLQDK [OP12-462] | – | statistically significantly inhibited | remarkably inhibited | strongly inhibited | did not inhibit at all or hardly inhibited | strongly inhibited | did not inhibit at all or hardly inhibited | –
6 | – | – | EYLEVQRQLA [OP10-11, conventional HGS/C constituent oligopeptide] | remarkably lower | a tumor growth inhibitory effect was observed | – | – | – | – | – | –
7 | – | – | KLEIMRQKKQ [OP10-10, conventional HGS/C constituent oligopeptide] | remarkably lower | a tumor growth inhibitory effect was observed | – | – | – | – | – | –
8 | strong interaction | strong interaction | QIQLAQKLEI [OP10-507] | – | statistically significantly inhibited | – | strongly inhibited | did not inhibit at all or hardly inhibited | strongly inhibited | did not inhibit at all or hardly inhibited | –
9 | strong interaction | strong interaction | RRLYYEGLQD [OP10-463] | – | – | – | – | – | – | – | –
10 | strong interaction | strong interaction | VQRQLAIQRL [OP10-527] | – | statistically significantly inhibited | – | strongly inhibited | did not inhibit at all or hardly inhibited | strongly inhibited | did not inhibit at all or hardly inhibited | –
